Laboratory results from ChEMBL document CHEMBL3885861, “Open TG-GATES”.

Species on record: Rattus norvegicus
Experiment: Open TG-GATES - Regimen: Daily Repeat
Format: toxicity, organism-based, Sprague-Dawley
Set-up: regimen Daily Repeat, gender Male, age 6 weeks
Details: in vivo, po, 100 mg/kg, route gavage, dose level Low; for APTT / Bas / Eos / Fbg / Hb / Ht / Lym / MCH / MCHC / MCV / Mono / Neu / PT / Plat / RBC / Ret / WBC: tissue Blood; for KIDNEY_L / KIDNEY_R / KIDNEY_TOTAL: tissue Kidney; for LIVER: tissue Liver; for A/G / ALP / ALT / AST / BUN / CRE / Ca / Cl / DBIL / GLC / IP / K / LDH / Na / PL / RALB / TBIL / TC / TG / TP / gamma-GTP: tissue Plasma

CCN1CCCC1CNC(=O)c1cc(S(N)(=O)=O)ccc1OC (configuration not stated) [SULPIRIDE]
TERMINAL_BW (72 h, time 3 day): 231.2 g | APTT (72 h, time 3 day): 17.2 s | Bas (72 h, time 3 day): 0% | Eos (72 h, time 3 day): 1% | Fbg (72 h, time 3 day): 274.6 mg/dL | Hb (72 h, time 3 day): 13.6 g/dL | Ht (72 h, time 3 day): 41.3% | Lym (72 h, time 3 day): 74.8% | MCH (72 h, time 3 day): 20.9 pg | MCHC (72 h, time 3 day): 32.8% | MCV (72 h, time 3 day): 63.7 fL | Mono (72 h, time 3 day): 3% | Neu (72 h, time 3 day): 20.8% | PT (72 h, time 3 day): 13.2 s | Plat (72 h, time 3 day): 122 x10_4/uL | RBC (72 h, time 3 day): 649.2 x10_4/ul | Ret (72 h, time 3 day): 6.5% | WBC (72 h, time 3 day): 95.3 x10_2/uL | KIDNEY_L (72 h, time 3 day): 1 g | KIDNEY_R (72 h, time 3 day): 1 g | KIDNEY_TOTAL (72 h, time 3 day): 2 g | LIVER (72 h, time 3 day): 10.7 g | A/G (72 h, time 3 day): 0.9 | ALP (72 h, time 3 day): 1543 IU/L | ALT (72 h, time 3 day): 42.4 IU/L | AST (72 h, time 3 day): 66.4 IU/L | BUN (72 h, time 3 day): 13.6 mg/dL | CRE (72 h, time 3 day): 0.2 mg/dL | Ca (72 h, time 3 day): 11 mg/dL | Cl (72 h, time 3 day): 105.2 meq/L | DBIL (72 h, time 3 day): 0.01 mg/dL | GLC (72 h, time 3 day): 186.8 mg/dL | IP (72 h, time 3 day): 7.4 mg/dL | K (72 h, time 3 day): 4.2 meq/L | LDH (72 h, time 3 day): 70.4 IU/L | Na (72 h, time 3 day): 141 meq/L | PL (72 h, time 3 day): 142.2 mg/dL | RALB (72 h, time 3 day): 2.6 g/dL | TBIL (72 h, time 3 day): 0.058 mg/dL | TC (72 h, time 3 day): 72 mg/dL | TG (72 h, time 3 day): 106.6 mg/dL | TP (72 h, time 3 day): 5.6 g/dL | gamma-GTP (72 h, time 3 day): 1 IU/L | TERMINAL_BW ([…], time 7 day): 265 g | TERMINAL_BW ([…], time 14 day): 328.7 g | TERMINAL_BW ([…], time 28 day): 377.8 g | APTT ([…], time 7 day): 19.5 s | Bas ([…], time 7 day): 0.6% | Eos ([…], time 7 day): 1.2% | Fbg ([…], time 7 day): 289.6 mg/dL | Hb ([…], time 7 day): 14 g/dL | Ht ([…], time 7 day): 42.1% | Lym ([…], time 7 day): 80% | MCH ([…], time 7 day): 20.5 pg | MCHC ([…], time 7 day): 33.2% | MCV ([…], time 7 day): 61.9 fL | Mono ([…], time 7 day): 2.8% | Neu ([…], time 7 day): 14.6% | PT ([…], time 7 day): 13.1 s | Plat ([…], time 7 day): 123.5 x10_4/uL | RBC ([…], time 7 day): 681.6 x10_4/ul | Ret ([…], time 7 day): 5.3% | WBC ([…], time 7 day): 106.6 x10_2/uL | APTT ([…], time 14 day): 20.6 s | Bas ([…], time 14 day): 0% | Eos ([…], time 14 day): 1% | Fbg ([…], time 14 day): 286 mg/dL | Hb ([…], time 14 day): 14.6 g/dL | Ht ([…], time 14 day): 44% | Lym ([…], time 14 day): 75.2% | MCH ([…], time 14 day): 20.6 pg | MCHC ([…], time 14 day): 33.2% | MCV ([…], time 14 day): 62.1 fL | Mono ([…], time 14 day): 3% | Neu ([…], time 14 day): 20% | PT ([…], time 14 day): 13.1 s | Plat ([…], time 14 day): 121.3 x10_4/uL | RBC ([…], time 14 day): 708 x10_4/ul | Ret ([…], time 14 day): 4.5% | WBC ([…], time 14 day): 97.2 x10_2/uL | APTT ([…], time 28 day): 19.8 s | Bas ([…], time 28 day): 0% | Eos ([…], time 28 day): 1.2% | Fbg ([…], time 28 day): 274.2 mg/dL | Hb ([…], time 28 day): 16 g/dL | Ht ([…], time 28 day): 46.9% | Lym ([…], time 28 day): 76.2% | MCH ([…], time 28 day): 19.8 pg | MCHC ([…], time 28 day): 34.2% | MCV ([…], time 28 day): 57.7 fL | Mono ([…], time 28 day): 1.8% | Neu ([…], time 28 day): 19.8% | PT ([…], time 28 day): 13 s | Plat ([…], time 28 day): 110.8 x10_4/uL | RBC ([…], time 28 day): 812.6 x10_4/ul | Ret ([…], time 28 day): 2.2% | WBC ([…], time 28 day): 95.5 x10_2/uL | KIDNEY_L ([…], time 7 day): 1.1 g | KIDNEY_R ([…], time 7 day): 1.1 g | KIDNEY_TOTAL ([…], time 7 day): 2.2 g | KIDNEY_L ([…], time 14 day): 1.2 g | KIDNEY_R ([…], time 14 day): 1.2 g | KIDNEY_TOTAL ([…], time 14 day): 2.4 g | KIDNEY_L ([…], time 28 day): 1.2 g | KIDNEY_R ([…], time 28 day): 1.2 g | KIDNEY_TOTAL ([…], time 28 day): 2.5 g | LIVER ([…], time 7 day): 12.9 g | LIVER ([…], time 14 day): 14.2 g | LIVER ([…], time 28 day): 14.4 g | A/G ([…], time 7 day): 0.9 | ALP ([…], time 7 day): 1433 IU/L | ALT ([…], time 7 day): 45.4 IU/L | AST ([…], time 7 day): 66.6 IU/L | BUN ([…], time 7 day): 14.8 mg/dL | CRE ([…], time 7 day): 0.2 mg/dL | Ca ([…], time 7 day): 10.7 mg/dL | Cl ([…], time 7 day): 105.6 meq/L | DBIL ([…], time 7 day): 0.008 mg/dL | GLC ([…], time 7 day): 175.2 mg/dL | IP ([…], time 7 day): 7.5 mg/dL | K ([…], time 7 day): 4.4 meq/L | LDH ([…], time 7 day): 64.2 IU/L | Na ([…], time 7 day): 141.8 meq/L | PL ([…], time 7 day): 145.2 mg/dL | RALB ([…], time 7 day): 2.6 g/dL | TBIL ([…], time 7 day): 0.056 mg/dL | TC ([…], time 7 day): 70.4 mg/dL | TG ([…], time 7 day): 116.4 mg/dL | TP ([…], time 7 day): 5.6 g/dL | gamma-GTP ([…], time 7 day): 1 IU/L | A/G ([…], time 14 day): 0.9 | ALP ([…], time 14 day): 1376.8 IU/L | ALT ([…], time 14 day): 38.8 IU/L | AST ([…], time 14 day): 68.5 IU/L | BUN ([…], time 14 day): 15.8 mg/dL | CRE ([…], time 14 day): 0.2 mg/dL | Ca ([…], time 14 day): 11 mg/dL | Cl ([…], time 14 day): 104.5 meq/L | DBIL ([…], time 14 day): 0.015 mg/dL | GLC ([…], time 14 day): 197 mg/dL | IP ([…], time 14 day): 7.6 mg/dL | K ([…], time 14 day): 3.9 meq/L | LDH ([…], time 14 day): 73.5 IU/L | Na ([…], time 14 day): 141.2 meq/L | PL ([…], time 14 day): 145.5 mg/dL | RALB ([…], time 14 day): 2.7 g/dL | TBIL ([…], time 14 day): 0.06 mg/dL | TC ([…], time 14 day): 67.5 mg/dL | TG ([…], time 14 day): 149 mg/dL | TP ([…], time 14 day): 5.8 g/dL | gamma-GTP ([…], time 14 day): 1 IU/L | A/G ([…], time 28 day): 0.8 | ALP ([…], time 28 day): 981.6 IU/L | ALT ([…], time 28 day): 36 IU/L | AST ([…], time 28 day): 65.6 IU/L | BUN ([…], time 28 day): 17.2 mg/dL | CRE ([…], time 28 day): 0.3 mg/dL | Ca ([…], time 28 day): 10.5 mg/dL | Cl ([…], time 28 day): 105.2 meq/L | DBIL ([…], time 28 day): 0.008 mg/dL | GLC ([…], time 28 day): 178 mg/dL | IP ([…], time 28 day): 6.4 mg/dL | K ([…], time 28 day): 3.8 meq/L | LDH ([…], time 28 day): 173.6 IU/L | Na ([…], time 28 day): 142.6 meq/L | PL ([…], time 28 day): 136 mg/dL | RALB ([…], time 28 day): 2.8 g/dL | TBIL ([…], time 28 day): 0.068 mg/dL | TC ([…], time 28 day): 63 mg/dL | TG ([…], time 28 day): 112 mg/dL | TP ([…], time 28 day): 6.2 g/dL | gamma-GTP ([…], time 28 day): 1 IU/L
